Results on 28 molecules are retold here after US10130616B2, “Securinine and norsecurinine analogue compounds for the treatment of myeloid disorders” (Case Western Reserve University, priority 2013, dated 2018).

SMILES strings stand for the structures.

For one assay, the system named is HL-60 cells. As to the kind of experiment: Growth of HL-60 cells (IC50). The assay is classed as cell-based, human. Conditions: HL-60 cells; concentration giving 100% death.
With `COC(OC)[C@H]1CC[C@H]2N1[C@@H]1C=C(I)C3=CC(=O)O[C@@]32C1` [Compound 1], the “100% Death” value was 100% Death <2.5.

Staying with this assay, now noted: Homo sapiens, HL-60, HL-60 cells; value bracketed between tested concentrations; read-out: HL-60, IC50.
Usually IC50 stands for the concentration that gives 50% inhibition. Turning to `CCCCC1=C[C@@H]2C[C@@]3(OC(=O)C=C13)[C@H]1CCCCN21` [Compound 4], the IC50 lay in the range of 3000 to 4000 nM.

Regarding `CC(C)(C)c1ccc(C2=C[C@@H]3C[C@@]4(OC(=O)C=C24)[C@H]2CCCCN32)cc1` [Compound 5], the IC50 was 20000 to 30000 nM.

With `O=C1C=C2C(c3cc(C(F)(F)F)cc(C(F)(F)F)c3)=C[C@@H]3C[C@@]2(O1)[C@H]1CCCCN31` [Compound 6], the IC50 lay in the range of 15000 to 20000 nM.

With `O=C1C=C2C(c3cc(Br)cc(Br)c3)=C[C@@H]3C[C@@]2(O1)[C@H]1CCCCN31` [Compound 7], the IC50 was in the range of 15000 to 20000 nM.

Take `C[N+]12CCCC[C@@H]1[C@]13C[C@H]2C=C(I)C1=CC(=O)O3` (stereo partly shown) [Compound 9]: the IC50 lay in the range of 5000 to 7500 nM.

Consider `CC(C)CC#CC1=C[C@@H]2C[C@@]3(OC(=O)C=C13)[C@H]1CCCCN21` [Compound 16], for which the IC50 was in the range of 1250 to 2500 nM.

In the case of `O=C1C=C2C(C#CC3CCCC3)=C[C@@H]3C[C@@]2(O1)[C@H]1CCCCN31` [Compound 19], the IC50 was in the range of 310 to 625 nM.

`CCCCC#CC1=C[C@@H]2C[C@@]3(OC(=O)C=C13)[C@H]1CCCCN21` [Compound 20]: the IC50 is 2500 nM.

For `CC(C)(C)C#CC1=C[C@@H]2C[C@@]3(OC(=O)C=C13)[C@H]1CCCCN21` [Compound 23], the IC50 lay in the range of 1250 to 2500 nM.

As for `O=C1C=C2C(C#CCC3CCCC3)=C[C@@H]3C[C@@]2(O1)[C@H]1CCCCN31` [Compound 24], the IC50 was in the range of 1250 to 2500 nM.

For the molecule `O=C1C=C2C(C#CC3CC3)=C[C@@H]3C[C@@]2(O1)[C@H]1CCCCN31` [Compound 25], the IC50 was in the range of 1250 to 2500 nM.

Consider `O=C1C=C2C(C#Cc3ccc(F)cc3)=C[C@@H]3C[C@@]2(O1)[C@H]1CCCCN31` [Compound 30], for which the IC50 was in the range of 310 to 625 nM.

For the molecule `CC(C)(C)c1ccc(C#CC2=C[C@@H]3C[C@@]4(OC(=O)C=C24)[C@H]2CCCCN32)cc1` [Compound 32], the IC50 is 1250 nM.

With `O=C1C=C2C(C#CCOc3ccccc3)=C[C@@H]3C[C@@]2(O1)[C@H]1CCCCN31` [Compound 33], the IC50 is 625 to 1250 nM.

Turning to `O=C1C=C2C(C#CCOCc3ccccc3)=C[C@@H]3C[C@@]2(O1)[C@H]1CCCCN31` [Compound 34], the IC50 lay within 1250 to 2500 nM.

For `O=C1C=C2C(C#Cc3cc(F)cc(F)c3)=C[C@@H]3C[C@@]2(O1)[C@H]1CCCCN31` [Compound 37], the IC50 was 5000 to 10000 nM.

As to `Cc1ccccc1C#CC1=C[C@@H]2C[C@@]3(OC(=O)C=C13)[C@H]1CCCCN21` [Compound 38], the IC50 fell in the range of 1250 to 2500 nM.

Turning to `CCOC(C#CC1=C[C@@H]2C[C@@]3(OC(=O)C=C13)[C@H]1CCCCN21)OCC` [Compound 44], the IC50 fell in the range of 2500 to 5000 nM.

On to `CC(C)(C)OCC#CC1=C[C@@H]2C[C@@]3(OC(=O)C=C13)[C@H]1CCCCN21` [Compound 45], for which the IC50 lay in the range of 1250 to 2500 nM.

With `CCc1ccc(C#CC2=C[C@@H]3C[C@@]4(OC(=O)C=C24)[C@H]2CCCCN32)cc1` [Compound 49], the IC50 was in the range of 310 to 625 nM.

As to `CCCCc1ccc(C#CC2=C[C@@H]3C[C@@]4(OC(=O)C=C24)[C@H]2CCCCN32)cc1` [Compound 50], the IC50 is 625 to 1250 nM.

As to `O=C1C=C2C(C#Cc3ccc(-c4ccccc4)cc3)=C[C@@H]3C[C@@]2(O1)[C@H]1CCCCN31` [Compound 51], the IC50 was under 70 nM.

Consider `O=C1C=C2C(C#Cc3cccs3)=C[C@@H]3C[C@@]2(O1)[C@H]1CCCCN31` [Compound 52], for which the IC50 was in the range of 70 to 156 nM.

`[N-]=[N+]=Nc1ccc(C#CC2=C[C@@H]3C[C@@]4(OC(=O)C=C24)[C@H]2CCCCN32)cc1` [Compound 54]: the IC50 was determined as 310 nM.

Regarding `Nc1ccc(C#CC2=C[C@@H]3C[C@@]4(OC(=O)C=C24)[C@H]2CCCCN32)cc1` [Compound 63], the IC50 was found to be 156 nM.

Staying with this assay, now noted: Homo sapiens, HL-60, read-out: HL-60, IC50, HL-60 cells; value bracketed between tested concentrations.
Regarding `CC(C)[Si](OCC#CC1=C[C@@H]2C[C@@]3(OC(=O)C=C13)[C@H]1CCCCN21)(C(C)C)C(C)C` [Compound 27], the IC50 was 625 to 1250 nM.

Still in this assay, the particulars now being: read-out: HL-60, IC50; HL-60 cells; value bracketed between tested concentrations.
`O=C1C=C2C(I)=C[C@@H]3C[C@@]2(O1)[C@H]1CCCCN31` [Compound 13]: the IC50 was under 2500 nM.
